Source: patent US9284528B2, “Use of stem cell conditioned medium to inhibit oxidation for anti-aging skin” (GROWGENE BIOTECH INC., priority 2014, dated 2016)

Assay: ABTS free radicals scavenging assay (antioxidant assay kit, Cayman)
Format: biochemical
Settings: 0.0625-1 mM tested; 5 minutes room temperature; absorbance 750 nm
Method: An antioxidant assay kit (Cayman) was used for this assay according to the instructions. Each of samples including 10 μl of 6.25%˜100% conditioned medium or 0.0625˜1 mM L-ascorbic acid (L-AA) was mixed with 10 μl of metmyoglobin, 150 μl chromogen, and 40 μl hydrogen peroxide for reaction at room temperature for 5 minutes. Because stem cell conditioned medium (CM) is a composite component, a percentage (%) instead of a concentration (mM) is presented as the unit of CM herein.
Referring to FIG. 2A, it is a representative diagram showing the effect of WJMSC-CM on scavenging ABTS free radicals. Various concentration of L-ascorbic acid (L-AA) or stem cell conditioned medium (CM) was mixed with an appropriate amount of ABTS and oxidants for reaction. ABTS has an absorption peak at 750 nm. This assay is based on the ability of antioxidants to reduce ABTS into its colourless form and the extent of decolourisation corresponding to the absorbance reduction of ABTS.

O=C1O[C@H]([C@@H](O)CO)C(O)=C1O [L-ascorbic acid]
IC50: 806 µM
